In patent US20240166627A1, “Terpyridinedione compound or salt thereof, and preparation method and application thereof” (SHENZHEN SALUBRIS PHARMACEUTICALS CO., LTD., priority 2021, published 2024):

System: production of TNFα in U937
Experiment: Releasing TNFα from U937 induced by LPS
Assay type: cell-based
Conditions: Homo sapiens, U-937; PMA-differentiated U937, LPS 100 ng/ml, 4 h; read-out: IC50 value that the compound inhibits the production of TNFα
Source text: Cytokine regulation in human monocytes has shown that the p38 pathway is the key to the biosynthesis of a plurality of pro-inflammatory cytokines including TNFα, IL-1β and IL-6. Therefore, the inhibition of the p38 MAPK pathway is to reduce inflammatory response by reducing the biosynthesis of the pro-inflammatory cytokines. […] This is a reflection of the effect of the compound in the present invention to facilitate reduction of inflammation, which is useful in the treatment of various diseases, including chronic inflammatory diseases, acute inflammatory diseases, or self-inflammatory diseases. The potency and efficacy of the p38 inhibitor in blocking cytokine production are evaluated using a human U937 cell line.
A 1640 medium with an article number being A10491-01, Gibco; penicillin-streptomycin with an article number being 15140-122, Gibco; fetal bovine serum with an article number being 10099-141C, Gibco; PBS with an article number being 10010-031, Gibco; LPS with an article number being L2880, Sigma; PMA with an article number being P1585, Sigma; dimethyl sulfoxide with an article number being D8418-1L, Sigma; and a TNFα kit with an article number being K151QWD-4, MSD.
A 96-well plate with an article number being 3599, Corning; a plate-vibrating device with an article number being QB-9002, QILINBEIER; a centrifuge with an article number being 5810R, Eppendorf; a carbon dioxide incubator with an article number being 371, Thermo; a counter with an article number being C10281, Gibco; a microscope with an article number being CKX41, OLYMPUS; and an MSD plate reader with an article number being 1201 MESO SECTOR 600, MSD.
U937, ATCC with an article number being CRL-1593.2.
About 2 mg of a drug is weighted; a mother solution is prepared to 10 mM (which is calculated by free alkali) by means of DMSO; and the mother solution is diluted 10-fold to 1 mM, and then is successively diluted 4-fold to 250 μM, 62.5 μM, 15.6 μM, 3.9 μM, 0.97 μM, 0.24 μM, and 0.061 μM. The above series of diluted DMSO drugs is diluted 20-fold as working solutions by using media.
At Day 0, 10000/well inoculation is performed, stimulation is performed for 48 h with 20 ng/ml of PMA, and culture is performed at 37° C., 5% CO2. • At Day 2, 1. Supernatant is removed from differentiated U937, cleaning is performed once with PBS, and 96 μl of the 1640 medium is added. • 2. 2 μl of the compound containing (DMSO with a final concentration being 0.1%), and culture is performed for 30 min at 37° C., 5% CO2. • 3. 2 μl of LPS (a final concentration being 100 ng/ml) is added, cells are stimulated, and culture is performed for 4 h at 37° C., 5% CO2. • 4. Centrifugation is performed, supernatant is taken, and content of TNFα in the supernatant is determined through ELISA.
The content of TNFα corresponding to each well is calculated by using a standard curve in the kit.
The compound IC50 is calculated by using a GraphPad nonlinear fitting formula, and for an experimental result, refer to Table 1.

| SMILES | IC50 [nM] |
| --- | --- |
| Cc1cnc(-n2cccc(C(C)(C)O)c2=O)cc1-n1c(C)cc(OCc2ccc(C#N)cc2F)c(Cl)c1=O [Embodiment 8, 4-(((3″-chloro-3-(2-hydroxypropane-2-yl)-5′,6″-dimethyl-2,2″-dioxo-2H,2″H-[1,2 2′:4′,1″-terpyridine]-4″-yl)oxy)methyl)-3-fluorobenzonitrile] | 14.4 |
| Cc1cnc(-n2cccc(C(C)(C)O)c2=O)cc1-n1c(C)cc(OCc2c(F)cccc2F)c(Cl)c1=O [Embodiment 15, 3″-chloro-4″-((2,6-difluorophenyl)methoxy)-3-(2-hydroxypropane-2-yl)-5′,6″-dimethyl-2H,2″H-[1,2′:4′,1″-terpyridine]-2,2″-diketone] | 1.6 |
| Cc1cnc(-n2cccc(C(C)(C)O)c2=O)cc1-n1c(C)cc(OCc2ncccc2C)c(Cl)c1=O [Embodiment 12, 3″-chloro-4″-((3-methylpyridin-2-yl)methoxy)-3-(2-hydroxypropane-2-yl)-5′,6″-dimethyl-2H,2″H-[1,2′:4′,1″-terpyridine]-2,2″-diketone] | 5.09 |
| Cc1cnc(-n2cccc(C(C)(C)O)c2=O)cc1-n1c(C)cc(OCc2cccnc2)c(Cl)c1=O [Embodiment 30, 3″-chloro-3-(2-hydroxypropane-2-yl)-5′,6″-dimethyl-4″-((pyridin-3-yl)methoxy)-2H,2″H-[1,2′:4′,1″-terpyridine]-2,2″-diketone] | 11.9 |
| Cc1cnc(-n2cccc(C(C)(C)O)c2=O)cc1-n1c(C)cc(OCc2ncccc2Cl)c(Cl)c1=O [Embodiment 19, 3″-chloro-4″-((3-chloropyridine-2-yl)methoxy)-3-(2-hydroxypropane-2-yl)-5′,6″-dimethyl-2H,2″H-[1,2′:4′,1″-terpyridine]-2,2″-diketone] | 8.11 |
| Cc1cnc(-n2cccc(C(C)(C)O)c2=O)cc1-n1c(C)cc(OCc2ccc(F)cc2F)c(Cl)c1=O [Embodiment 4, 3″-chloro-4″-((2,4-difluorobenzyl)oxy)-3-(2-hydroxypropane-2-yl)-5′,6″-dimethyl-2H,2″H-[1,2′:4′,1″-terpyridine]-2,2″-diketone] | 2.05 |
| Cc1cnc(-n2cccc(C(C)(C)O)c2=O)cc1-n1c(C)cc(OCc2c(F)cccc2C#N)c(Cl)c1=O [Embodiment 13, 2-(((3″-chloro-3-(2-hydroxypropane-2-yl)-5′,6″-dimethyl-2,2″-dione-2H,2″H-[1,2′:4′,1″-terpyridine]-4″-yl)oxy)methyl)-3-fluorobenzonitrile] | 4.26 |
| Cc1cnc(-n2cccc(C(C)(C)O)c2=O)cc1-n1c(C)cc(OCc2ncc(Cl)cc2F)c(Cl)c1=O [Embodiment 5, 3″-chloro-4″-((3-fluoro-5-chloropyridine-2-yl)methoxy)-3-(2-hydroxypropane-2-yl)-5′,6″-dimethyl-2H,2″H-[1,2′:4′,1″-terpyridine]-2,2″-diketone] | 4.05 |
| Cc1cc(C(C)(C)O)c(=O)n(-c2cc(-n3c(C)cc(OCc4ncc(F)cc4F)c(Cl)c3=O)c(C)cn2)c1 [Embodiment 35, 3″-chloro-4″-((3,5-difluoropyridine-2-yl)methoxy)-3-(2-hydroxypropane-2-yl)-5,5′,6″-trimethyl-2H, 2″H-[1,2′:4′,1″-terpyridine]-2,2″-diketone] | 24.3 |
| Cc1cnc(-n2cccc(C(C)O)c2=O)cc1-n1c(C)cc(OCc2ncc(F)cc2F)c(Cl)c1=O (stereo not drawn) [Embodiment 24, 3″-chloro-4″-((3,5-difluoropyridine-2-yl)methoxy)-3-(1-hydroxyethyl)-5′,6″-dimethyl-2H,2″H-[1,2′:4 1″-terpyridine]-2,2″-diketone] | 11.2 |
| Cc1cnc(-n2ccc(C)c(C(C)(C)O)c2=O)cc1-n1c(C)cc(OCc2ncc(F)cc2F)c(Cl)c1=O [Embodiment 29, 3″-chloro-4″-((3,5-difluoropyridine-2-yl)methoxy)-3-(2-hydroxypropane-2-yl)-4,5′,6″-trimethyl-2H, 2″H-[1,2′:4′,1″-terpyridine]-2,2″-diketone] | 15.1 |
| Cc1cnc(-n2cccc(C(C)(C)O)c2=O)cc1-n1c(C)cc(OCc2ccc(F)cn2)c(Cl)c1=O [Embodiment 21, 3″-chloro-4″-((5-fluoropyridine-2-yl)methoxy)-3-(2-hydroxypropane-2-yl)-5′,6″-dimethyl-2H,2″H-[1,2′:4′,1″-terpyridine]-2,2″-diketone] | 7.11 |
| Cc1cnc(-n2cccc(C(C)(C)O)c2=O)cc1-n1c(C)cc(OCc2ccc(F)c(F)c2)c(Cl)c1=O [Embodiment 23, 3″-chloro-4″-((3,4-difluorobenzyl)oxy)-3-(2-hydroxypropane-2-yl)-5′,6″-dimethyl-2H,2″H-[1,2′:4′,1″-terpyridine]-2,2″-diketone] | 5.53 |
| Cc1cnc(-n2cccc(C(C)(C)O)c2=O)cc1-n1c(C)cc(OCc2ncc(F)cc2Cl)c(Cl)c1=O [Embodiment 25, 3″-chloro-4″-((3-chloro-5-fluoropyridine-2-yl)methoxy)-3-(2-hydroxypropane-2-yl)-5′,6″-dimethyl-2H,2″H-[1,2′:4′,1″-terpyridine]-2,2″-diketone] | 6.06 |
| Cc1cnc(-n2cccc(C(C)(C)O)c2=O)cc1-n1c(C)cc(OCc2ccc(Cl)cn2)c(Cl)c1=O [Embodiment 14, 3″-chloro-4″-((5-chloropyridine-2-yl)methoxy)-3-(2-hydroxypropane-2-yl)-5′,6″-dimethyl-2H,2″H-[1,2′:4′,1″-terpyridine]-2,2″-diketone] | 8.21 |
| Cc1cnc(-n2cccc(C(C)(C)O)c2=O)cc1-n1c(C)cc(OCc2ccc(Cl)cc2F)c(Cl)c1=O [Embodiment 9, 3″-chloro-4″-((4-chloro-2-fluorobenzyl)oxy)-3-(2-hydroxypropane-2-yl)-5′,6″-dimethyl-2H,2″H-[1,2′:4′,1″-terpyridine]-2,2″-diketone] | 2.72 |
| Cc1cnc(-n2cccc(C(C)(C)O)c2=O)cc1-n1c(C)cc(OCc2ncc(C3CC3)cc2F)c(Cl)c1=O [Embodiment 27, 3″-chloro-4″-((3-fluoro-5-cyclopropylpyridine-2-yl)methoxy)-3-(2-hydroxypropane-2-yl)-5′,6″-dimethyl-2H,2″H-[1,2′:4′,1″-terpyridine]-2,2″-diketone] | 16.6 |
| Cc1cnc(-n2cccc(C(C)(C)O)c2=O)cc1-n1c(C)cc(OCc2cc(F)ccc2F)c(Cl)c1=O [Embodiment 18, 3″-chloro-4″-((2,5-difluorobenzyl)oxy)-3-(2-hydroxypropane-2-yl)-5′,6″-dimethyl-2H,2″H-[1,2′:4′,1″-terpyridine]-2,2″-diketone] | 2.39 |
